Results reported in patent US20240415918A1, “Polypeptide and its use as a CCK receptor agonist/antagonist” (Centre for Regenerative Medicine & Health, Hong Kong …, priority 2021, published 2024).
Where a SMILES comes first, the peptide text is derived from it. [ ]: non-standard residue; d: D form. The star is where a group is joined. Phe(3-Br) = N[C@@H](Cc1cccc(Br)c1)C(=O)O; dNMeW = CN[C@H](Cc1c[nH]c2ccccc12)C(=O)O; Fmoc = O=C(OCC1c2ccccc2-c2ccccc21)*; Palmitoyl = CCCCCCCCCCCCCCCC(=O)*; Ahp(2) = CCCCC[C@H](N)C(=O)O; Nle = CCCC[C@H](N)C(=O)O

Experiments:
[1] = target: T1, CCK-B receptors (CHO-CCK) (Homo sapiens, UniProt P32239); assay: Calcium flux (Fluo-8) agonist test on CHO-CCK model cells; format: cell-based; conditions: for EC50: CHO-CCK cells; for Agonistic Activity (%) at 10 μM: compound at 10 μM, percentage of signal of 20 nM CCK8 alone
T1 construct: expressed in transfected cells; host or cells: CHO (CHO-CCK model cells)
T1 sequence (P32239 1-447): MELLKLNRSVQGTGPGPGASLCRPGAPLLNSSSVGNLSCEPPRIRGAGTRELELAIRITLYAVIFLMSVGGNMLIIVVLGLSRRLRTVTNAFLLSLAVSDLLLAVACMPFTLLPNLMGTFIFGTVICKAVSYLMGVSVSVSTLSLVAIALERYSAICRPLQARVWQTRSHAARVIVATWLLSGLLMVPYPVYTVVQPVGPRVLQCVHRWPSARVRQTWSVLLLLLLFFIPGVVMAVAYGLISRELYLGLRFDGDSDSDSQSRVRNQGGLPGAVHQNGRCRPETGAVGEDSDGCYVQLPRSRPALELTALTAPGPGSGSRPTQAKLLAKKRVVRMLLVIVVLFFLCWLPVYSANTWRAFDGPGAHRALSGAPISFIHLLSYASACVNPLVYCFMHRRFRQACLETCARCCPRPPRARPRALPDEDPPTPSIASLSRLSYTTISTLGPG
Method in brief: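 Agonist-mode Fluo-8 calcium flux read on CHO-CCK cells after dye loading 30 min at 37 °C plus 30 min at room temperature.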

[2] = target: T1, CCK-B receptors (CHO-CCK); assay: Calcium flux (Fluo-8) antagonist test on CHO-CCK model cells in presence of CCK8; format: cell-based
Method: The compound was formulated to a 10 mM mother liquor with DMSO, and then diluted into a series of 9 concentrations with a 3-fold gradient to form a 1000× stock solution. […] Prepare 1×Fluo-8 analysis buffer: mix 9 mL of HHBS, 1 mL of 10× Pluronic F127 Plus and 20 μL of Fluo-8 thoroughly for later use. • 3. Add Fluo-8 dye working solution to the cell plate, 100 μL/well. First incubate in a 37° C. incubator for 30 min, and then take it out and incubate at room temperature in the dark for 30 min. • 4. In the process of incubating cells, the compounds to be detected were prepared with HHBS. • 5. […] The agonism/antagonism EC50 of the compound can be obtained by plotting the fitting curve with the agonism/antagonism percentage as Y-axis and the concentration of the compound as X-axis.

[3] = compound alone, 100% = 20 nM CCK8
[4] = compound together with 10 nM CCK8
[5] = Fluo-8 calcium flux, 100% control = 20 nM CCK8

Row | SMILES | EC50 [1, 3] | Agonistic Activity (%) at 10 μM [1] | EC50 [2, 4] | EC50 ([2]; in presence of 10 nM CCK8) | EC50 [1, 5] | further results
1 | CSCC[C@H](NC(=O)[C@H](N)Cc1c[nH]c2ccccc12)C(=O)N[C@@H](CC(=O)O)C(=O)N[C@@H](Cc1ccc(C#N)cc1)C(N)=O [HT-32, D-Trp-Met-Asp-Phe(4-CN)-NH2] | 1.13 µM | 57.37% | 2.66 µM |  |  | 
2 | COC(=O)C[C@H](NC(=O)[C@H](CCSC)NC(=O)[C@H](N)Cc1c[nH]c2ccccc12)C(=O)N[C@@H](Cc1cc(Cl)cc(Cl)c1)C(N)=O [HT-89, D-Trp-Met-Asp(Ome)-Phe(3,5-DiCl)-NH2] | 3.21 µM | 44.86% | 3.62 µM |  |  | 
3 | C[S+]([O-])CC[C@H](NC(=O)[C@H](N)Cc1c[nH]c2ccccc12)C(=O)N[C@@H](CC(=O)O)C(=O)N[C@@H](Cc1cc(Cl)cc(Cl)c1)C(N)=O (stereo partly drawn) [HT-55, D-Trp-Met(O)-Asp-Phe(3,5-DiCl)-NH2] | 1.65 µM | 62.28% | 1.79 µM |  |  | 
4 | CSCC[C@H](NC(=O)[C@@H](CC(C)C)NC(C)=O)C(=O)N[C@@H](CC(=O)O)C(=O)N[C@@H](Cc1cccc(Br)c1)C(N)=O [HT-183, Ac-D-Leu-Met-Asp-Phe(3-Br)-NH2] (Ac-[dL]MD[Phe(3-Br)]-NH2) | 4.46 µM |  | 9.41 µM |  |  | 
5 | CCCC[C@H](NC(=O)[C@H](Cc1c[nH]c2ccccc12)NC(=O)CNC(C)=O)C(=O)N[C@@H](CC(=O)O)C(=O)N[C@@H](Cc1cccc(Br)c1)C(N)=O [HT-215, Ac-Gly-Trp-Nle-Asp-Phe(3-Br)-NH2] (Ac-GW[Nle]D[Phe(3-Br)]-NH2) |  |  |  | 0.237 µM |  | EC50 ([1]; Fluo-8 calcium flux, bound printed in nm in the cell): < 0.0001 µM
6 | CSCC[C@H](NC(=O)[C@@H](Cc1c[nH]c2ccccc12)NC(=O)CNC(=O)[C@H](Cc1ccc(O)cc1)NC(=O)[C@H](CC(N)=O)NC(=O)[C@H](CCCCN)NC(=O)[C@@H](NC(=O)[C@H](C)NC(=O)[C@H](CC(N)=O)NC(=O)[C@@H](NC(=O)[C@H](Cc1c[nH]cn1)NC(=O)CNC(=O)[C@H](CO)NC(=O)[C@H](CC(N)=O)NC(=O)[C@H](C)NC(=O)[C@H](Cc1ccc(O)cc1)NC(C)=O)C(C)C)C(C)C)C(=O)N[C@@H](CC(=O)O)C(=O)N[C@@H](Cc1cccc(Br)c1)C(N)=O [HT-218] (Ac-YANSGHVNAVKNYG[dW]MD[Phe(3-Br)]-NH2) |  |  |  | 0.68 µM | 0.395 µM | 
7 | CCCCCCCCCCCCCCCC(=O)NCC(=O)N[C@H](Cc1c[nH]c2ccccc12)C(=O)N[C@@H](CCCC)C(=O)N[C@@H](CC(=O)O)C(=O)N[C@@H](Cc1cccc(Br)c1)C(N)=O [HT-203, (Pal)-Gly-D-Trp-Nle-Asp-Phe(3-Br)-NH2] (Palmitoyl-G[dW][Nle]D[Phe(3-Br)]-NH2) |  |  |  | 1.59 µM | 0.036 µM | 
8 | COC(=O)C[C@H](NC(=O)[C@H](CCSC)NC(=O)[C@H](N)Cc1c[nH]c2ccccc12)C(=O)N[C@@H](Cc1cccc(I)c1)C(N)=O [HT-79, D-Trp-Met-Asp(Ome)-Phe(3-I)-NH2] | 2.29 µM | 38.37% | 1.99 µM |  |  | 
9 | CCCC[C@H](NC(=O)[C@@H](Cc1cccc(Br)c1)NC(C)=O)C(=O)N[C@@H](CC(=O)O)C(=O)N[C@@H](Cc1cccc(Br)c1)C(N)=O [HT-236, Ac-Phe(3-Br)-Nle-Asp-Phe(3-Br)-NH2] |  |  |  | 0.357 µM | 0.0977 µM | 
10 | CCCC[C@H](NC(=O)[C@H](Cc1c[nH]c2ccccc12)NC(C)=O)C(=O)N[C@@H](CCC(=O)O)C(=O)N[C@@H](Cc1cccc(Br)c1)C(N)=O [HT-238, Ac-D-Trp-Nle-Glu-Phe(3-Br)-NH2] |  |  |  | 28.2 µM | 0.0344 µM | 
11 | CCCCC[C@H](NC(=O)[C@@H](Cc1c[nH]c2ccccc12)N(C)C(=O)OCC1c2ccccc2-c2ccccc21)C(=O)N[C@@H](CC(=O)OC)C(=O)N[C@@H](Cc1cccc(Br)c1)C(N)=O [HT-254, Fmoc-(N-Me-Trp)-Pa-Asp(O-Me)-Phe(3-Br)-NH2] (Fmoc-[dNMeW][Ahp(2)]D(OMe)[Phe(3-Br)]-NH2) |  |  |  | 1.04 µM | 0.0226 µM | 
12 | CCCC[C@H](NC(=O)[C@@H](Cc1c(C)[nH]c2ccccc12)NC(C)=O)C(=O)N[C@@H](CC(=O)O)C(=O)N[C@@H](Cc1c(C)[nH]c2ccccc12)C(N)=O [HT-235, Ac-(2-Me-Trp)-Nle-Asp-(2-Me-Trp)-NH2] |  |  |  |  |  | EC50 ([1]; Fluo-8 calcium flux, bound in μM): > 10 µM; EC50 ([2]; in presence of 10 nM CCK8, bound in μM): > 10 µM
13 | CCCC[C@H](NC(=O)[C@H](Cc1c[nH]c2ccccc12)NC(C)=O)C(=O)N[C@@H](CC(=O)O)C(=O)N[C@@H](Cc1c[nH]c2ccccc12)C(N)=O [HT-225, Ac-D-Trp-Nle-Asp-Trp-NH2] |  |  |  | 0.475 µM | 0.0332 µM | 
14 | CSCC[C@H](NC(=O)[C@@H](Cc1ccc(O)cc1)NC(C)=O)C(=O)N[C@@H](CC(=O)O)C(=O)N[C@@H](Cc1cccc(Br)c1)C(N)=O [HT-182, Ac-D-Tyr-Met-Asp-Phe(3-Br)-NH2] (Ac-[dY]MD[Phe(3-Br)]-NH2) | 0.421 µM |  | 3.3 µM |  |  | 
15 | CSCC[C@H](NC(=O)[C@H](N)Cc1c[nH]c2ccccc12)C(=O)N[C@@H](CC(=O)O)C(=O)N[C@@H](Cc1ccccc1[N+](=O)[O-])C(N)=O [HT-24, D-Trp-Met-Asp-Phe(2-NO2)-NH2] | 0.206 µM | 50.60% | 0.624 µM |  |  | 
16 | CCCC[C@H](NC(=O)[C@@H](Cc1cn(C)c2ccccc12)NC(C)=O)C(=O)N[C@@H](CCC(=O)O)C(=O)N[C@@H](Cc1cccc(Br)c1)C(N)=O [HT-243, Ac-(1-Me-Trp)-Nle-Glu-Phe(3-Br)-NH2] |  |  |  | 1.41 µM | 0.44 µM | 
17 | CCCC[C@H](NC(=O)[C@@H](Cc1c(C)[nH]c2ccccc12)NC(C)=O)C(=O)N[C@@H](CC(=O)O)C(=O)N[C@@H](Cc1cccc(Br)c1)C(N)=O [HT-231, Ac-(2-Me-Trp)-Nle-Asp-Phe(3-Br)-NH2] |  |  |  | 1.43 µM | 0.252 µM | 
18 | C[S+]([O-])CC[C@H](NC(=O)[C@H](N)Cc1c[nH]c2ccccc12)C(=O)N[C@@H](CC(=O)O)C(=O)N[C@@H](Cc1cccc(I)c1)C(N)=O (stereo partly drawn) [HT-45, D-Trp-Met(O)-Asp-Phe(3-I)-NH2] | 4.38 µM | 58.98% | 3.37 µM |  |  | 
19 | CC[C@H](C)[C@H](NC(=O)[C@H](CCC(=O)O)NC(=O)[C@H](CC(N)=O)NC(=O)[C@@H](NC(=O)[C@H](CC(C)C)NC(=O)[C@H](CCC(=O)O)NC(=O)[C@H](CO)NC(=O)[C@H](CCC(=O)O)NC(C)=O)[C@@H](C)O)C(=O)N1CCC[C@H]1C(=O)N[C@@H](C)C(=O)N[C@@H](CCC(=O)O)C(=O)N[C@H](Cc1c[nH]c2ccccc12)C(=O)N[C@@H](CCSC)C(=O)N[C@@H](CC(=O)O)C(=O)N[C@@H](Cc1cccc(Br)c1)C(N)=O [HT-219, Ac-Glu-Ser-Glu-Leu-Thr-Asn-Glu-lle-Pro-Ala-Glu-D-Trp-Met-Asp-Phe(3-Br)-NH2] (Ac-ESELTNEIPAE[dW]MD[Phe(3-Br)]-NH2) |  |  |  | 2.58 µM | 0.327 µM | 
20 | COC(=O)C[C@H](NC(=O)[C@H](CCSC)NC(=O)[C@H](N)Cc1c[nH]c2ccccc12)C(=O)N[C@@H](Cc1cc(F)cc(F)c1)C(N)=O [HT-90, D-Trp-Met-Asp(Ome)-Phe(3,5-DiF)-NH2] | 9.3 µM | 59.76% | 5.91 µM |  |  | 
21 | CSCC[C@H](NC(=O)[C@H](Cc1cccc(Br)c1)NC(C)=O)C(=O)N[C@@H](CC(=O)O)C(=O)N[C@@H](Cc1cccc(Br)c1)C(N)=O [HT-224, Ac-Phe(3-Br)-Met-Asp-Phe(3-Br)-NH2] (Ac-[Phe(3-Br)]MD[Phe(3-Br)]-NH2) |  |  |  | 0.0803 µM | 0.0254 µM | 
22 | CSCC[C@H](NC(=O)[C@H](N)Cc1c[nH]c2ccccc12)C(=O)N[C@@H](CC(=O)O)C(=O)N[C@@H](Cc1ccc(F)cc1)C(N)=O [HT-36, D-Trp-Met-Asp-Phe(4-F)-NH2] | 0.0888 µM | −3.55% | 0.876 µM |  |  | 
23 | CCCC[C@H](NC(=O)[C@@H](Cc1c(C)[nH]c2ccccc12)NC(C)=O)C(=O)N[C@@H](CCC(=O)O)C(=O)N[C@@H](Cc1cn(C)c2ccccc12)C(N)=O [HT-247, Ac-(2-Me-Trp)-Nle-Glu-(1-Me-Trp)-NH2] |  |  |  | 0.62 µM | 1.9 µM | 
24 | CSCC[C@H](NC(=O)[C@H](N)Cc1c[nH]c2ccccc12)C(=O)N[C@@H](CC(=O)O)C(=O)N[C@@H](Cc1cc(Cl)cc(Cl)c1)C(N)=O [HT-38, D-Trp-Met-Asp-Phe(3,5-DiCl)-NH2] | 0.0493 µM | 122.74% | 0.0997 µM |  |  | 
25 | CSCC[C@H](NC(=O)[C@H](Cc1c[nH]c2ccccc12)NC(C)=O)C(=O)N[C@@H](CC(=O)O)C(=O)N[C@@H](CCCNC(=N)N)C(N)=O [HT-195, Ac-Trp-Met-Asp-Arg-NH2] (Ac-WMDR-NH2) |  |  | 2.2 µM |  |  | EC50 ([1]; compound alone, bound in μM): > 10 µM
